Measured values from patent publication US11572590B2, “Methods for evaluating tumor cell spheroids using 3D microfluidic cell culture device” (Dana-Farber Cancer Institute, Inc., priority 2017, dated 2023).
Read-outs that look alike come from different tables or passages of the source.

How the values were obtained:
Experiment in all cases: SelectScreen Kinase Profiling, single point inhibition and IC50 for off-target kinases
Assay type in all cases: biochemical
off-target kinases [1] = biological target: off-target kinases (Homo sapiens, UniProt P36894); details: BMPR1A (ALK3), LanthaScreen Binding
off-target kinases [2] = biological target: off-target kinases (Homo sapiens, UniProt Q15349); details: RPS6KA2 (RSK3), ZLYTE, ATP Km app
off-target kinases [3] = biological target: off-target kinases (Homo sapiens, UniProt P27037); details: ACVR2A, LanthaScreen Binding
off-target kinases [4] = biological target: off-target kinases (Homo sapiens, UniProt P24723); details: PRKCH (PKC eta), ZLYTE, ATP Km app
off-target kinases [5] = biological target: T1, off-target kinases (Homo sapiens, UniProt P54753); details: EPHB3, ZLYTE, ATP Km app
T1 sequence (P54753 34-998): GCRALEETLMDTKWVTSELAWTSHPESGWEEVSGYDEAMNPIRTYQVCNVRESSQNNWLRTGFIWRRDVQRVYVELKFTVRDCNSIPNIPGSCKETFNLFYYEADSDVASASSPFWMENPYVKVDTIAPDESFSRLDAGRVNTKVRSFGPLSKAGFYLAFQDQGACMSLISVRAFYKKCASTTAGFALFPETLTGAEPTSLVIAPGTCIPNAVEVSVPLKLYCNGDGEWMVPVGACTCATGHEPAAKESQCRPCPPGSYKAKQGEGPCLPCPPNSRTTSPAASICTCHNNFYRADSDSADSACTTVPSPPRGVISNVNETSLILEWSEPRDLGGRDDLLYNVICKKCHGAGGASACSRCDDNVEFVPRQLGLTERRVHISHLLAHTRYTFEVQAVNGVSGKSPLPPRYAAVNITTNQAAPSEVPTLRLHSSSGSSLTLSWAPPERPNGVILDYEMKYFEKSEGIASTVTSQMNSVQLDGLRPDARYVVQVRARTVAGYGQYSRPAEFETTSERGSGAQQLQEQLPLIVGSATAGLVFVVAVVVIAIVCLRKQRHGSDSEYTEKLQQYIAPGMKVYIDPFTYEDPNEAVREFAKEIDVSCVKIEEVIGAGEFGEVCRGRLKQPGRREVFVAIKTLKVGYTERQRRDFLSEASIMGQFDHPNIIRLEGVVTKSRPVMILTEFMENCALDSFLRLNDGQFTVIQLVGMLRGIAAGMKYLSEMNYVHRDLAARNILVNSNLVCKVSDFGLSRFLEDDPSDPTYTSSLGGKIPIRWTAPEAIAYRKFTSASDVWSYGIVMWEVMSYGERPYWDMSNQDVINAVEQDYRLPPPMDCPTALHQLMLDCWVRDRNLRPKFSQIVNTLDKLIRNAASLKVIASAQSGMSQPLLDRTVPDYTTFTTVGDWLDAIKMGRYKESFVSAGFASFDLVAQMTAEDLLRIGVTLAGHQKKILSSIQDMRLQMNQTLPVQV

off-target kinases [6] = biological target: off-target kinases (Homo sapiens, UniProt P30530); details: AXL, ZLYTE, ATP Km app
off-target kinases [7] = biological target: off-target kinases (Homo sapiens, UniProt P16591); details: FER, ZLYTE, ATP Km app
off-target kinases [8] = biological target: off-target kinases (Homo sapiens, UniProt Q9UKE5); details: TNIK, LanthaScreen Binding
off-target kinases [9] = biological target: off-target kinases (Homo sapiens, UniProt Q86UE8); details: TLK2, LanthaScreen Binding
off-target kinases (Homo sapiens, UniProt Q86UE8), sequence (Q86UE8 whole entry): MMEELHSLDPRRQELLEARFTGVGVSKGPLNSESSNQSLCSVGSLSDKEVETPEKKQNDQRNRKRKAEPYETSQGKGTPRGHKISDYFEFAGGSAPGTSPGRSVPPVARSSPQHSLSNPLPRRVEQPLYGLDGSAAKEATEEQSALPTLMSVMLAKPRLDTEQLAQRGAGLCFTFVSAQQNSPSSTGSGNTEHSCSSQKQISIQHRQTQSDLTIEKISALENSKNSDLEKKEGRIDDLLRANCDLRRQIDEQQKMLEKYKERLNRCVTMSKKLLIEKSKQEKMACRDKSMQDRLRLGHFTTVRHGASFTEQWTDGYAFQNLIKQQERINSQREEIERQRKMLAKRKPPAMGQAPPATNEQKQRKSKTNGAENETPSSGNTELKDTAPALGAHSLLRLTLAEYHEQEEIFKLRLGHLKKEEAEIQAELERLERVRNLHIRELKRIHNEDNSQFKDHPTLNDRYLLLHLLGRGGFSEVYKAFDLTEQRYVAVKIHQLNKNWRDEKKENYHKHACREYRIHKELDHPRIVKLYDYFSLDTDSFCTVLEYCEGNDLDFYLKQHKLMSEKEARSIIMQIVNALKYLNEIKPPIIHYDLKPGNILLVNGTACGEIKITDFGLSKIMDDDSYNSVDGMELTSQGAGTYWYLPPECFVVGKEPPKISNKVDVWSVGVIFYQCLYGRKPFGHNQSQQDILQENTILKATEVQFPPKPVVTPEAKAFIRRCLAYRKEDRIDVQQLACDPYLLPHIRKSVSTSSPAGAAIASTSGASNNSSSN

off-target kinases (Homo sapiens, UniProt P36894), sequence (P36894 24-532): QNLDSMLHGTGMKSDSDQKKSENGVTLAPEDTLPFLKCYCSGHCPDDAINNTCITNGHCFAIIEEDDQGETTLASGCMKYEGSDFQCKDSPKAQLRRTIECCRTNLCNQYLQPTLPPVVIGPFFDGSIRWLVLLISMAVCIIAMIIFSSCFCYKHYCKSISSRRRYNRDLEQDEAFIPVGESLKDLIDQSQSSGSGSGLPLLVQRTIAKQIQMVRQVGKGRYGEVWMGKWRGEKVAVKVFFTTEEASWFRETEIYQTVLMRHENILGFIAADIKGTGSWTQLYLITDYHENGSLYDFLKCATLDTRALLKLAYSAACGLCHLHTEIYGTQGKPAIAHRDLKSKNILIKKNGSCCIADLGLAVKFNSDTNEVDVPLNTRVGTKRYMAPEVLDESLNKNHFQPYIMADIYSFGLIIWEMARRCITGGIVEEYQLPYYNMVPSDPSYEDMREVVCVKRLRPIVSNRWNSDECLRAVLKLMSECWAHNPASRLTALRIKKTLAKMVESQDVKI
off-target kinases (Homo sapiens, UniProt P24723), sequence (P24723 whole entry): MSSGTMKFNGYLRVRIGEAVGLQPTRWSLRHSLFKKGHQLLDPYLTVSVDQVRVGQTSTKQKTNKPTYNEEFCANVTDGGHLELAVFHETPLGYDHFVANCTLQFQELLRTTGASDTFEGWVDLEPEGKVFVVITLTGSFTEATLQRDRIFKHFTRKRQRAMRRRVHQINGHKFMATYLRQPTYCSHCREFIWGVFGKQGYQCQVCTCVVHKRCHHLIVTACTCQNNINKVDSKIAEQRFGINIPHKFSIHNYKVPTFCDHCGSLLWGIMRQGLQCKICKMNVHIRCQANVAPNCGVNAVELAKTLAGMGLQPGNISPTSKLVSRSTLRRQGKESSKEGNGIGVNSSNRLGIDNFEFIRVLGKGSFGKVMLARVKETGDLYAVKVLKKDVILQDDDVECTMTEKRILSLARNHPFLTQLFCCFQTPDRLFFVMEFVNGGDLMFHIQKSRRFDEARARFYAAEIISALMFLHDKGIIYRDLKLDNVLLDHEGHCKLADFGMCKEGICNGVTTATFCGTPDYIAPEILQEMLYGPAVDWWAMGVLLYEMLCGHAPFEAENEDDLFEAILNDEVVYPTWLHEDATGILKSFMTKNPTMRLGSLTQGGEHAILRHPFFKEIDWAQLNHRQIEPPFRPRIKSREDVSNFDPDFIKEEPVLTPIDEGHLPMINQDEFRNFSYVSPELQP
off-target kinases (Homo sapiens, UniProt P30530), sequence (P30530 26-894): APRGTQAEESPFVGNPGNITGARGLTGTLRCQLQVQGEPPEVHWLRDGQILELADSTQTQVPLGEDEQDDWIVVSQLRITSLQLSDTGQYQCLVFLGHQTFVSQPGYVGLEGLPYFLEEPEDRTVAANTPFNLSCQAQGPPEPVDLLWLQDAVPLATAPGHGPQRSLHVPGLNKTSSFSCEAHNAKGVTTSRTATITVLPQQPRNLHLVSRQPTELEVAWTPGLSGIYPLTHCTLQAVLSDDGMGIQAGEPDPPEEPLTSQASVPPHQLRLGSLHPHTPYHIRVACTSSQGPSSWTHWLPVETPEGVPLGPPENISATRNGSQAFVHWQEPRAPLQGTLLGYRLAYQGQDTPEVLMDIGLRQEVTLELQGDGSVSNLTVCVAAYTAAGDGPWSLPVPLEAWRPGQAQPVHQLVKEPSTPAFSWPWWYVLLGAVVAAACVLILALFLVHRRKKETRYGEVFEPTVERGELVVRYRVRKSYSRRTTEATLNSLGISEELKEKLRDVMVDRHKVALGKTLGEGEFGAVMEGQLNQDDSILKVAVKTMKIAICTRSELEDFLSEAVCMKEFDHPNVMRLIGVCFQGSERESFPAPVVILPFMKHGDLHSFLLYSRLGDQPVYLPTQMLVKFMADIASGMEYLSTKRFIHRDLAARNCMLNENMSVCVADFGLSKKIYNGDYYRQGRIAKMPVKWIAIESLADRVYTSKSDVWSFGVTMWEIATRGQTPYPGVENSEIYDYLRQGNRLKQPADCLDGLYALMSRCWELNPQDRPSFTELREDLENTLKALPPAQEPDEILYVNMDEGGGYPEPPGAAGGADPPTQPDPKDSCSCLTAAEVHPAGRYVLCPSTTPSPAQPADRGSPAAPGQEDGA
off-target kinases (Homo sapiens, UniProt P27037), sequence (P27037 20-513): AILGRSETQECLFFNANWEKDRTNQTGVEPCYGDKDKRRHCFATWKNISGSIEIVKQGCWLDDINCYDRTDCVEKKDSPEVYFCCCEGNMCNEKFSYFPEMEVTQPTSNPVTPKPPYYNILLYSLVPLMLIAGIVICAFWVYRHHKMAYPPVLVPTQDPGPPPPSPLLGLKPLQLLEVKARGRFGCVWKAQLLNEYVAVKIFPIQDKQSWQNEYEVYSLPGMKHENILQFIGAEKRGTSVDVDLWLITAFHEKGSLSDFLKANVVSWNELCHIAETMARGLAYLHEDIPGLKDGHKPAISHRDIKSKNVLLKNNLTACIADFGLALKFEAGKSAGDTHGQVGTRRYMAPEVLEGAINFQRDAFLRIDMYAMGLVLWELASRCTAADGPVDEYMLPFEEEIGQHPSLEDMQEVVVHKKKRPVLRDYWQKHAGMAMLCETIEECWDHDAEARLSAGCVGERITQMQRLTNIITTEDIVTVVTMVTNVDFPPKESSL
off-target kinases (Homo sapiens, UniProt Q9UKE5), sequence (Q9UKE5 whole entry): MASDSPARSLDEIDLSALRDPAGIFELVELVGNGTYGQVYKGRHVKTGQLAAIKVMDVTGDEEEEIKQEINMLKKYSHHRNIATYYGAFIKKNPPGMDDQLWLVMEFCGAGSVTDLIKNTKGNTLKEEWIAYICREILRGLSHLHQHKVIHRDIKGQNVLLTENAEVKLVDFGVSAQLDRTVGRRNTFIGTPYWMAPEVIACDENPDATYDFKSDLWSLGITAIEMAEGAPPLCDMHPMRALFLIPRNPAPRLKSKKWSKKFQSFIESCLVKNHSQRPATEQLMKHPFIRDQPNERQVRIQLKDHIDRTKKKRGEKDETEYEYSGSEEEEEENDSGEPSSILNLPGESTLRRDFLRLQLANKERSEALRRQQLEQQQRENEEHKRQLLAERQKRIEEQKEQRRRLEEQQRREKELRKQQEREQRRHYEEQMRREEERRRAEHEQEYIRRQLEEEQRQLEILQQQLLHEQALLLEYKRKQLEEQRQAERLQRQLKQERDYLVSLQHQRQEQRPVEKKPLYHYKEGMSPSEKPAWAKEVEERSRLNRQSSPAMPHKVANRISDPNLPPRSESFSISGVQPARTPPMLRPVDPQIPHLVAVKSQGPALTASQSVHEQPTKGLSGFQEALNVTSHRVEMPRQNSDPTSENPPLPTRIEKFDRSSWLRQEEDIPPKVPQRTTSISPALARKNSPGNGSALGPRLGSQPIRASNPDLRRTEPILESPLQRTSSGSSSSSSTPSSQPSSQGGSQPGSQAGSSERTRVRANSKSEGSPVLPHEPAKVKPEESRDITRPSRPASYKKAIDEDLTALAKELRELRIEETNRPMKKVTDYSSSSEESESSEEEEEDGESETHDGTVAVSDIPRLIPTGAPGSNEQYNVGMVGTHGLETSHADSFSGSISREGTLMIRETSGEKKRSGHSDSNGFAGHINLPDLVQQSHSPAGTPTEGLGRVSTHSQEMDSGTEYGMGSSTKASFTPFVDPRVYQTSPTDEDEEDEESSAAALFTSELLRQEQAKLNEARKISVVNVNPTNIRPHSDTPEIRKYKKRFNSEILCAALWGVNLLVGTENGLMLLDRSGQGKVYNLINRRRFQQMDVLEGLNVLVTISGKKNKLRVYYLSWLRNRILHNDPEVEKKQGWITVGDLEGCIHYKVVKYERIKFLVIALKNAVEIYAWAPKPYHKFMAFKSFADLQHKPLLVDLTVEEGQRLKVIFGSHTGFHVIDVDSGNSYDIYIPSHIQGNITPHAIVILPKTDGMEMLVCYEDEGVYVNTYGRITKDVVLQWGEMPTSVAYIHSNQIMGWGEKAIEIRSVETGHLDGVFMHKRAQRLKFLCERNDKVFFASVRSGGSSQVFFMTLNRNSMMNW

SMILES: N#Cc1cc(-c2ncnc(Nc3ccc(N4CCN(C5COC5)CC4)cc3)n2)ccc1OC1CCOCC1 [Compound 1, 5-(4-((4-(4-(oxetan-3-yl)piperazin-1-yl)phenyl)amino)-1,3,5-triazin-2-yl)-2-((tetrahydro-2H-pyran-4-yl)oxy)benzonitrile]
- inhibition (off-target kinases [1]; read-out: % Inhibition 1): 51%
- inhibition (off-target kinases [1]; read-out: % Inhibition 2): 51%
- inhibition (off-target kinases [1]; read-out: % Inhibition Avg): 51%
- inhibition (off-target kinases [2]; read-out: % Inhibition 1): 17%
- inhibition (off-target kinases [2]; read-out: % Inhibition 2): 13%
- inhibition (off-target kinases [2]; read-out: % Inhibition Avg): 15%
- inhibition (off-target kinases [3]; read-out: % Inhibition 1): 23%
- inhibition (off-target kinases [3]; read-out: % Inhibition 2): 21%
- inhibition (off-target kinases [3]; read-out: % Inhibition Avg): 22%
- inhibition (off-target kinases [4]; read-out: % Inhibition 1): 12%
- inhibition (off-target kinases [4]; read-out: % Inhibition 2): 8%
- inhibition (off-target kinases [4]; read-out: % Inhibition Avg): 10%
- inhibition (off-target kinases [5]; read-out: % Inhibition 1): 3%
- inhibition (off-target kinases [5]; read-out: % Inhibition 2): 3%
- inhibition (off-target kinases [5]; read-out: % Inhibition Avg): 3%
- inhibition (off-target kinases [6]; read-out: % Inhibition 1): 22%
- inhibition (off-target kinases [6]; read-out: % Inhibition 2): 25%
- inhibition (off-target kinases [6]; read-out: % Inhibition Avg): 24%
- inhibition (off-target kinases [7]; read-out: % Inhibition 1): 4%
- inhibition (off-target kinases [7]; read-out: % Inhibition 2): 9%
- inhibition (off-target kinases [7]; read-out: % Inhibition Avg): 7%
- inhibition (off-target kinases [8]; read-out: % Inhibition 1): 46%
- inhibition (off-target kinases [8]; read-out: % Inhibition 2): 43%
- inhibition (off-target kinases [8]; read-out: % Inhibition Avg): 45%
- inhibition (off-target kinases [9]; read-out: % Inhibition 1): 84%
- inhibition (off-target kinases [9]; read-out: % Inhibition 2): 81%
- inhibition (off-target kinases [9]; read-out: % Inhibition Avg): 83%
